Source: patent US8633204B2 (Pfizer Inc., priority 2006, dated 2014)

What was measured:
PI3-Kα = PI3-Kα (Mus musculus (Mouse), UniProt P42337); test: PI3-Kα Biochemical Assay (fluorescence polarization kinase assay)
How it was run: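 Co-expressed mouse p110/p85 PI3-Kα (4 nM stock) acting on PI(4,5)P2 (60 μM stock) with ATP/MgCl2 in HEPES pH 7.4 buffer, 35 min at room temperature, then EDTA stop. PI(3,4,5)P3 product detected by displacement of TAMRA-PIP3 from Grip1 PH domain (FP, 535/580 nm). IC50 from sigmoidal fit of % inhibition.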

[1] = tested on: PI3-K in BT20 cells (phosphorylation of AKT at serine 473); test: PI3-Kα Cellular Assay (AKT Ser473 phosphorylation ELISA in BT20 cells); format: cell-based, human; settings: Homo sapiens, BT-20, pAKT Ser473 ELISA, 1 hour incubation
How it was run: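 Cells seeded overnight in 0.5% FBS, then exposed 1 h at 37 °C to an 11-concentration 1:3 dilution series, in duplicate.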

PI3-Kα, sequence (P42337 whole entry, the tested form may be a part): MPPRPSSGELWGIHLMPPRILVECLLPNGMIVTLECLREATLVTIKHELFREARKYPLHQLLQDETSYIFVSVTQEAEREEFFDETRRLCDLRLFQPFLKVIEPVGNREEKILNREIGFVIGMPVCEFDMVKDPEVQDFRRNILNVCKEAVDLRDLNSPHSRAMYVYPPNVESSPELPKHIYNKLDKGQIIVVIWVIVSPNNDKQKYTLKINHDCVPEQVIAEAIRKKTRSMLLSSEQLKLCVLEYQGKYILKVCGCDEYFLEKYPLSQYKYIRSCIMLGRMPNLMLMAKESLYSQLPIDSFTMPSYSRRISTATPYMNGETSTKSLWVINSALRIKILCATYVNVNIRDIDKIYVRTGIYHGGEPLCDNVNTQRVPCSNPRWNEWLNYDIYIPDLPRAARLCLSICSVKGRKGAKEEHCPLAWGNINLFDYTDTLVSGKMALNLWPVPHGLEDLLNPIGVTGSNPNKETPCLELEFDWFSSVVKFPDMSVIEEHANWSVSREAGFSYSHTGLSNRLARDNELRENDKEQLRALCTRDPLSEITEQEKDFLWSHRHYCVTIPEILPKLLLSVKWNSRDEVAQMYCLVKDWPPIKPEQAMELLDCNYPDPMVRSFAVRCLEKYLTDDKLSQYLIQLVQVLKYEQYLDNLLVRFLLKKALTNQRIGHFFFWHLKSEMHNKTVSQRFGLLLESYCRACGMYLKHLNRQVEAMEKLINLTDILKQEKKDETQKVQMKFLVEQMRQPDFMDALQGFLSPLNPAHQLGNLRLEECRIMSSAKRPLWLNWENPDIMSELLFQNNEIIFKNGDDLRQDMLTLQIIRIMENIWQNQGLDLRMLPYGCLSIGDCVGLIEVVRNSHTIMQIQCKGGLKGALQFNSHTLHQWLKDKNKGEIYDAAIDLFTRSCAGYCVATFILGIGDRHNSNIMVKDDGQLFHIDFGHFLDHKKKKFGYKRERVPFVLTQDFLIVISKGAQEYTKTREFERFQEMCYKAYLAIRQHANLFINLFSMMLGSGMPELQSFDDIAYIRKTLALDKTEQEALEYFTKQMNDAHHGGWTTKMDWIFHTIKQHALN
PI3-Kα, sequence (P26450 whole entry partner, the tested form may be a part): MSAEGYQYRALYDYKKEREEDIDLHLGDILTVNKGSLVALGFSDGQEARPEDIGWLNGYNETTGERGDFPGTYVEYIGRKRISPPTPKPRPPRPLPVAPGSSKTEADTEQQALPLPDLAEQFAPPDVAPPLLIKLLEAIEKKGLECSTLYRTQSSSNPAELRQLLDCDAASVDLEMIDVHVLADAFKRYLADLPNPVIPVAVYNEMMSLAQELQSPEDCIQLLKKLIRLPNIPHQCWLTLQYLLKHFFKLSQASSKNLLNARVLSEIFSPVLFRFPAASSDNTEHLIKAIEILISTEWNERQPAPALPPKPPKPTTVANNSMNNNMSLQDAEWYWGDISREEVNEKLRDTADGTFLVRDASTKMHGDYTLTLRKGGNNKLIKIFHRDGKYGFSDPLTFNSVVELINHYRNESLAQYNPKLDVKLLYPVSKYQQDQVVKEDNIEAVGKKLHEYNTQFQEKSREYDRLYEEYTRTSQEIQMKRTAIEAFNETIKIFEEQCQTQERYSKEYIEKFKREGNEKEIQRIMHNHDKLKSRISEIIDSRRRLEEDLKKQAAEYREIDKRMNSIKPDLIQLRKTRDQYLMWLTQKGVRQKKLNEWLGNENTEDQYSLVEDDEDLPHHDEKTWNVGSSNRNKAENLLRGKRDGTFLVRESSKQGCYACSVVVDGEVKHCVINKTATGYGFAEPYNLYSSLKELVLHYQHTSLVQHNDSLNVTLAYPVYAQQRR

IC50 (PI3-Kα) [nM]	IC50 [1] [nM]	SMILES
9.28	12.1	Cc1nc(N)nc2c1cc(-c1ccc(N(C)C)nc1)c(=O)n2[C@H]1CC[C@H](OCCO)CC1 [Compound 292]
5.31	15.3	COc1ncc(-c2cc3c(C)nc(N)nc3n([C@H]3CC[C@@H](OCCO)CC3)c2=O)cn1 [Compound 293, 2-amino-8-[cis-4-(2-hydroxyethoxy)cyclohexyl]-6-(2-methoxypyrimidin-5-yl)-4-methylpyrido[2,3-d]pyrimidin-7(8H)-one]
6.82	13.2	COc1ccc(-c2cc3c(C)nc(N)nc3n([C@H]3CC[C@H](OC[C@@H](O)CO)CC3)c2=O)cn1 [Compound 300, 2-amino-8-(trans-4-{[(2S)-2,3-dihydroxypropyl]oxy}cyclohexyl)-6-(6-methoxypyridin-3-yl)-4-methylpyrido[2,3-d]pyrimidin-7(8H)-one]
10.2	50.8	COc1ccc(-c2cc3c(C)nc(N)nc3n([C@H]3C[C@H](OCCO)C3)c2=O)cn1 [Compound 314, 2-amino-8-(trans-3-(2-hydroxyethoxy)cyclobutyl]-6-(6-methoxypyridin-3-yl)-4-methylpyrido[2,3-d]pyrimidin-7(8H)-one]

The remaining lines, values behind:

SMILES	IC50 (PI3-Kα) [nM]	IC50 [1] [nM]
Cc1nc(N)nc2c1cc(C(=O)Nc1ccn[nH]1)c(=O)n2C(C)C [Compound 279, 2-amino-8-isopropyl-4-methyl-7-oxo-N-1H-pyrazol-5-yl-7,8-dihydropyrido[2,3-d]pyrimidine-6-carboxamide]	2.9	30.5
CCn1cc(CNC(=O)c2cc3c(C)nc(NC)nc3n(C3CCCC3)c2=O)cn1 [Compound 281, 8-cyclopentyl-N-[(1-ethyl-1H-pyrazol-4-yl)methyl]-4-methyl-2-(methylamino)-7-oxo-7,8-dihydropyrido[2,3-d]pyrimidine-6-carboxamide]	1200	> 10000
CNc1nc(C)c2cc(C(=O)Nc3ccon3)c(=O)n(C3CCCC3)c2n1 [Compound 283, 8-cyclopentyl-N-isoxazol-3-yl-4-methyl-2-(methylamino)-7-oxo-7,8-dihydropyrido[2,3-d]pyrimidine-6-carboxamide]	5	72.2
COc1ncc(-c2cc3c(C)nc(N)nc3n([C@H]3CC[C@H](OCCO)CC3)c2=O)cn1 [Compound 287, 2-amino-8-[trans-4-(2-hydroxyethoxy)cyclohexyl]-6-(2-methoxypyrimidin-5-yl)-4-methylpyrido[2,3-d]pyrimidin-7(8H)-one]	2.2	38.9
COc1ncc(-c2cc3c(C)nc(N)nc3n([C@H]3CC[C@H](OCCO)CC3)c2=O)cc1F [Compound 288, 2-amino-6-(5-fluoro-6-methoxypyridin-3-yl)-8-[trans-4-(2-hydroxyethoxy)cyclohexyl]-4-methylpyrido[2,3-d]pyrimidin-7(8H)-one]	1.44	5.3
Cc1nc(N)nc2c1cc(Br)c(=O)n2[C@H]1CC[C@H](OCCO)CC1 [Compound 291, 2-amino-6-bromo-8-[trans-4-(2-hydroxyethoxy)cyclohexyl]-4-methylpyrido[2,3-d]pyrimidin-7(8H)-one]	55.2	96.5
Cc1nc(N)nc2c1cc(-c1cn[nH]c1)c(=O)n2[C@H]1CC[C@@H](OCCO)CC1 [Compound 296, 2-amino-8-[cis-4-(2-hydroxyethoxy)cyclohexyl]-4-methyl-6-(1H-pyrazol-4-yl)pyrido[2,3-d]pyrimidin-7(8H)-one]	29.7	9.1
Cc1nc(N)nc2c1cc(-c1cnn(C)c1)c(=O)n2[C@H]1CC[C@H](OCCO)CC1 [Compound 302, 2-amino-8-[trans-4-(2-hydroxyethoxy)cyclohexyl]-4-methyl-6-(1-methyl-1H-pyrazol-4-yl)pyrido[2,3-d]pyrimidin-7(8H)-one]	22.3	226
